How the values were obtained:
Phakopsora pachyrhizi = experiment: Test A: test suspension sprayed on soybean seedlings one day before inoculation with Phakopsora pachyrhizi spores (Asian soybean rust), visual disease rating; type: in vivo; settings: 100 = 100% disease control, 0 = no control; for pest or weed control at 10 ppm: Phakopsora pachyrhizi
From the text: General protocol for preparing test suspensions for Tests A-C: the test compounds were first dissolved in acetone in an amount equal to 3% of the final volume and then suspended at the desired concentration (in ppm) in acetone and purified water (50/50 mix by volume) containing 250 ppm of the surfactant PEG400 (polyhydric alcohol esters). The resulting test suspensions were then used in Tests A-C.
The test solution was sprayed to the point of run-off on soybean seedlings. The following day the seedlings were inoculated with a spore suspension of Phakopsora pachyrhizi (the causal agent of Asian soybean rust) and incubated in a saturated atmosphere at 22° C. for 24 h, and then moved to a growth chamber at 22° C. for 8 days, after which time visual disease ratings were made.
Results for Tests A-C are given in Table A. In the Table, a rating of 100 indicates 100% disease control and a rating of 0 indicates no disease control (relative to the controls). An asterisk “*” or a double asterisk “**” next to the rating value indicates a 50 ppm or 10 ppm test suspension was used, respectively. A dash (-) indicates the compound was not tested.

[1] = tested on: Puccinia recondita f. sp. tritici; experiment: Test B: test suspension sprayed on wheat seedlings one day before inoculation with Puccinia recondita f. sp. tritici spores (wheat leaf rust), disease rating; type: in vivo; settings: 100 = 100% disease control, 0 = no control
From the text: General protocol for preparing test suspensions for Tests A-C: the test compounds were first dissolved in acetone in an amount equal to 3% of the final volume and then suspended at the desired concentration (in ppm) in acetone and purified water (50/50 mix by volume) containing 250 ppm of the surfactant PEG400 (polyhydric alcohol esters). The resulting test suspensions were then used in Tests A-C. The test solution was sprayed to the point of run-off on wheat seedlings. The following day the seedlings were inoculated with a spore suspension of Puccinia recondita f. sp. tritici (the causal agent of wheat leaf rust) and incubated in a saturated atmosphere at 20° C. for 24 h, and then moved to a growth chamber at 20° C. for 6 days, after which time disease ratings were made. Results for Tests A-C are given in Table A. In the Table, a rating of 100 indicates 100% disease control and a rating of 0 indicates no disease control (relative to the controls). An asterisk “*” or a double asterisk “**” next to the rating value indicates a 50 ppm or 10 ppm test suspension was used, respectively. A dash (-) indicates the compound was not tested.

Row | Structure (SMILES) | Test A rating (disease control) (Phakopsora pachyrhizi; 10 ppm test suspension) | Test B rating (disease control) ([1]; 10 ppm test suspension) | further results
1 | O=C(OCc1ccc(Cl)c(Cl)c1)c1cnn(Cc2ccc(OCC(O)(O)C(F)(F)F)cc2)c1 [Compound 49] | 0% | 86% | 
2 | FC(F)(F)C1(COc2ccc(CNC(=S)NC3CCCCC3)cc2)OCCO1 [compound 77] | 0% | 0% | 
3 | CCOC(=COc1ccc(CN2CCC(C(=O)OC)C2)cc1)C(F)(F)F (mixture of isomers) [compound 310] | 100% | 0% | 
4 | O=C(NCC1CC1)c1cnc(Cc2ccc(OCC(O)(O)C(F)(F)F)cc2)o1 [Compound 247] | 13% | 0% | 
5 | CCCNC(=O)c1ccc(O/C=C(\OCC)C(F)(F)F)cc1 [compound 104] | 0% | 80% | 
6 | CCOC(=O)c1ccn(Cc2ccc(O/C=C(\OCC)C(F)(F)F)cc2)n1 [Compound 231, ethyl 1-[[4-[[(1Z)-2-ethoxy-3,3,3-trifluoro-1-propen-1-yl]oxy]phenyl]methyl]-1H-pyrazole-3-carboxylate] |  |  | pest or weed control at 10 ppm (Phakopsora pachyrhizi; 10 ppm test suspension): 100%; pest or weed control at 10 ppm ([1]; 10 ppm test suspension): 0%
7 | CC(C)C(=O)NCc1ccc(OCC2(C(F)(F)F)OCCO2)cc1 [compound 175] | 0% | 0% | 
8 | CCCCCCOC(=O)c1cnn(Cc2ccc(OCC(O)(O)C(F)(F)F)cc2)c1 [Compound 48] |  |  | Test A rating (disease control) (Phakopsora pachyrhizi; 50 ppm test suspension): 100%; Test B rating (disease control) ([1]; 50 ppm test suspension): 91%
9 | CCOC(=O)C=CCOc1ccc(OCC(O)(O)C(F)(F)F)cc1 [Compound 97] |  |  | Test A rating (disease control) (Phakopsora pachyrhizi; 50 ppm test suspension): 94%; Test B rating (disease control) ([1]; 50 ppm test suspension): 0%
10 | CCO/C(=C\Oc1ccc(Cn2ccc(C(=O)OC(C)(C)C)n2)cc1)C(F)(F)F [compound 253] | 0% | 0% | 
11 | CC(C)OC(=O)c1cnn(Cc2ccc(OCC(O)(O)C(F)(F)F)cc2)c1 [Compound 39] | 91% | 79% | 
12 | COC(C)C(=O)NCc1ccc(OCC2(C(F)(F)F)OCCO2)cc1 (stereo not drawn) [compound 214] | 0% | 0% | 
13 | CCO/C(=C\Oc1ccc(Cc2ccnc(SC)n2)cc1)C(F)(F)F [compound 308] |  |  | Test A rating (disease control) (Phakopsora pachyrhizi; 50 ppm test suspension): 25%; Test B rating (disease control) ([1]; 50 ppm test suspension): 0%
14 | CCCO/C(=C\Oc1cccc(Cn2cc(C(=O)OCC)cn2)c1)C(F)(F)F [compound 324] | 0% | 0% | 
15 | O=C(CC(F)(F)F)NCc1ccc(OCC2(C(F)(F)F)OCCO2)cc1 [compound 212] | 44% | 0% | 
16 | CCO/C(=C\Oc1ccc(Cn2cnc(C(=O)OC)n2)cc1)C(F)(F)F [Compound 123] | 98% | 0% | 
17 | C=C(C)COC(=O)c1cnn(Cc2ccc(OCC3(C(F)(F)F)OCCO3)cc2)c1 [compound 228] | 100% | 0% | 
18 | O=C(OCC(F)(F)F)c1cnn(Cc2ccc(OCC3(C(F)(F)F)OCCO3)cc2)c1 [compound 134] | 89% | 32% | 
19 | CCO/C(=C\Oc1ccc(C(=O)NC(C)C)cc1)C(F)(F)F [compound 101] | 0% | 0% | 
20 | CCO/C(=C\Oc1cccc(Cn2cc(C(=O)OCCOC)cn2)c1)C(F)(F)F [compound 340] | 100% | 0% | 
21 | C=C(C)COC(=O)c1cnn(Cc2ccc(OCC(O)(O)C(F)(F)F)cc2)c1 [Compound 40] | 91% | 68% | 
22 | CCOC(=O)c1cnn(CCCc2ccc(OCC3(C(F)(F)F)OCCO3)cc2)c1 [compound 296] | 0% | 0% | 
23 | CCO/C(=C\Oc1ccc(Cn2c(=O)oc3ccccc32)cc1)C(F)(F)F [compound 226] | 0% | 0% | 
24 | CCOC(=O)c1cnn(Cc2ccc(C/C=C(\OCC)C(F)(F)F)cc2)c1 [compound 140] | 98% | 23% | 
25 | CCO/C(=C\Oc1ccc(-c2noc(C(F)(F)F)n2)cc1)C(F)(F)F [compound 143] | 0% | 0% | 
26 | CCO/C(=C\Oc1ccc(Cn2cc(C(=O)NCC3CC3)cn2)cc1)C(F)(F)F [compound 117] | 23% | 0% | 

Row | Structure (SMILES) | Test A rating (disease control) (Phakopsora pachyrhizi; 10 ppm test suspension) | Test B rating (disease control) ([1]; 10 ppm test suspension) | further results
27 | COC(=O)NN=Cc1ccc(OCC(O)(O)C(F)(F)F)cc1 [Compound 33] | 96% | 86% | 
28 | N#CCNC(=O)c1cnn(Cc2ccc(OCC3(C(F)(F)F)OCCO3)cc2)c1 [compound 164] | 31% | 0% | 
29 | CCO/C(=C\Oc1ccc(CN)cc1)C(F)(F)F [compound 110] |  |  | Test A rating (disease control) (Phakopsora pachyrhizi; 50 ppm test suspension): 79%; Test B rating (disease control) ([1]; 50 ppm test suspension): 0%
30 | CCO/C(=C\Oc1ccc(Cc2ncc(C(=O)NCC3CC3)s2)cc1)C(F)(F)F [compound 254] | 73% | 0% | 
31 | CN(C)S(=O)(=O)c1ccc(OCC(O)(O)C(F)(F)F)cc1 [Compound 34] | 0% | 80% | 
32 | FC(F)(F)C1(COc2ccc(-c3ccccc3)cc2)OCCO1 [compound 190] | 0% | 0% | 
33 | CCCOC(=O)c1ccn(Cc2ccc(O/C=C(\OCC)C(F)(F)F)cc2)n1 [compound 292] | 100% | 0% | 
34 | CCO/C(=C\Oc1ccc(CNC(=O)C(C)OC)cc1)C(F)(F)F (stereo not drawn) [compound 114] |  |  | Test A rating (disease control) (Phakopsora pachyrhizi; 50 ppm test suspension): 44%; Test B rating (disease control) ([1]; 50 ppm test suspension): 0%
35 | CCO/C(=C\Oc1ccc(CN2CCC(C(=O)OC)CC2)cc1)C(F)(F)F [compound 309] | 100% | 0% | 
36 | CC(C)CS(=O)(=O)NCc1ccc(OCC2(C(F)(F)F)OCCO2)cc1 [compound 76] | 0% | 0% | 
37 | CCOC(=O)c1cnnn1Cc1ccc(O/C=C(\OCC)C(F)(F)F)cc1 [compound 120] | 0% | 0% | 
38 | CCO/C(=C\Oc1ccc(Cn2cncn2)cc1)C(F)(F)F [Compound 157] | 0% | 9% | 
39 | O=Cc1cccc(OCC(O)(O)C(F)(F)F)c1 [compound 305] |  |  | pest or weed control at 10 ppm (Phakopsora pachyrhizi; 10 ppm test suspension): 70%; pest or weed control at 10 ppm ([1]; 10 ppm test suspension): 0%
40 | O=C(OCc1ccncc1)c1cnn(Cc2ccc(OCC3(C(F)(F)F)OCCO3)cc2)c1 [compound 201] | 100% | 0% | 
41 | CCO/C(=C\Oc1ccc(C(=O)NC)cc1)C(F)(F)F [compound 105] | 0% | 68% | 
42 | CCCOC(=O)c1ccc(O/C=C(\OCC)C(F)(F)F)cc1 [compound 94] | 0% | 0% | 
43 | O=C(NCC(F)(F)F)c1cnc(Cc2ccc(OCC3(C(F)(F)F)OCCO3)cc2)s1 [Compound 275] | 0% | 0% | 
44 | CCCCOC(=O)c1ccn(Cc2ccc(O/C=C(\OCC)C(F)(F)F)cc2)n1 [compound 356] | 100% | 0% | 
45 | CCO/C(=C\Oc1ccc(Cn2cc(C(=O)OCC(=O)c3ccccc3)cn2)cc1)C(F)(F)F [compound 244] | 100% | 0% | 
46 | C#CCNC(=O)c1ccc(O/C=C(\OCC)C(F)(F)F)cc1 [compound 102] | 0% | 0% | 
47 | CCO/C(=C\Oc1ccc(Cn2nccc2C(=O)OC)cc1)C(F)(F)F [compound 250] | 0% | 0% | 
48 | O=C(NCC1CC1)c1cnc(Cc2ccc(OCC(O)(O)C(F)(F)F)cc2)s1 [Compound 256] | 73% | 0% | 
49 | CCOC(=O)c1ccc(O/C=C(\OCC)C(F)(F)F)cc1 [compound 95] | 0% | 0% | 
50 | O=[N+]([O-])c1ccc(OCC2(C(F)(F)F)OCCO2)cc1 [compound 166] | 100% | 95% | 
51 | CCO/C(=C\Oc1ccc(Cn2nccc2C(=O)OC(C)(C)C)cc1)C(F)(F)F [compound 252] | 0% | 0% | 
